Experimental data from ChEMBL document CHEMBL1130512, “Structure-based design of non-peptidic pyridone aldehydes as inhibitors of interleukin-1 converting enzyme” (Bioorg Med Chem Lett, 1997).
Residues, ends and D or L forms follow the SMILES beside them. *: point of attachment. Hydrocinnamoyl = O=C(CCc1ccccc1)*; Cbz = O=C(OCc1ccccc1)*

Biological target: T1, Caspase-1 (Homo sapiens, UniProt P29466)
T1 sequence (P29466 whole entry): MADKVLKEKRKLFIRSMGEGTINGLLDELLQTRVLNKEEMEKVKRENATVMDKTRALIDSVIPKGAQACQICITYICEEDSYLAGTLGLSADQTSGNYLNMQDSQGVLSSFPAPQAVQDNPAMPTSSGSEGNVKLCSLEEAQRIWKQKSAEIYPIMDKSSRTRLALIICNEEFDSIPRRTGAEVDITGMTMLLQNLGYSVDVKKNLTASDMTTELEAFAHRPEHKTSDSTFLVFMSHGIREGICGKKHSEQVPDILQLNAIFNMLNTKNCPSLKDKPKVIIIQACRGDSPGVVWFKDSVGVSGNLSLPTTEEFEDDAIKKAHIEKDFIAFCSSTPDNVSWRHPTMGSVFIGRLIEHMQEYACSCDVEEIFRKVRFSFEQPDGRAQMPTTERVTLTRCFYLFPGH
Experiment: Inhibition of IL-1 beta converting enzyme

| Ki [nM] | SMILES |
| --- | --- |
| 9 | CC(=O)N[C@@H](Cc1ccc(O)cc1)C(=O)N[C@H](C(=O)N[C@@H](C)C(=O)N[C@@H](CC(=O)O)C(=O)O)C(C)C |
| 54 | CC(=O)NC(C(=O)Nc1ccc(Cc2ccccc2)n(CC(=O)N[C@H](C=O)CC(=O)O)c1=O)c1ccc(O)cc1 (stereo partly specified) |
| 55 | CC(C)[C@H](NC(=O)OCc1ccccc1)C(=O)N[C@@H](C)C(=O)N[C@@H](CC(=O)O)C(=O)O (Cbz-Val-Ala-Asp-OH) |
| 1300 | CC(C)[C@H](NC(=O)OCc1ccccc1)C(=O)NCC(=O)N[C@@H](CC(=O)O)C(=O)O (Cbz-Val-Gly-Asp-OH) |
| 54 | CC(C)[C@H](NC(=O)CCc1ccccc1)C(=O)N[C@@H](C)C(=O)N[C@@H](CC(=O)O)C(=O)O (Hydrocinnamoyl-Val-Ala-Asp-OH) |
| 900 | O=C[C@H](CC(=O)O)NC(=O)Cn1c(-c2ccccc2)ccc(NC(=O)CCc2ccccc2)c1=O |
